According to PubChem BioAssay (NCI):
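Following 48 hours of exposure in 96-well plates, responses at five concentrations were used to interpolate endpoints linearly. GI50 is the concentration that inhibits growth by half. TGI: total growth inhibition.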

Columns and labels:
Experiment in all cases: NCI-60 cell line screen, 48 h
[1] = tested on: NCI/ADR-RES ovarian
[2] = tested on: MDA-MB-231 breast
[3] = tested on: SNB-75 CNS
[4] = tested on: IGROV1 ovarian
[5] = tested on: SK-MEL-5 melanoma
[6] = tested on: HCC-2998 colon
[7] = tested on: SNB-19 CNS
[8] = tested on: M14 melanoma
[9] = tested on: SF-268 CNS
[10] = tested on: SK-OV-3 ovarian
[11] = tested on: K-562 leukemia
[12] = tested on: MALME-3M melanoma
[13] = tested on: OVCAR-5 ovarian
[14] = tested on: NCI-H522 lung
[15] = tested on: SF-539 CNS
[16] = tested on: BT-549 breast
[17] = tested on: MOLT-4 leukemia
[18] = tested on: SK-MEL-2 melanoma
[19] = tested on: PC-3 prostate
[20] = tested on: OVCAR-4 ovarian
[21] = tested on: NCI-H226 lung
[22] = tested on: EKVX NSCLC
[23] = tested on: 786-0 renal
[24] = tested on: MCF7 breast
[25] = tested on: LOX IMVI melanoma
[26] = tested on: MDA-MB-435
[27] = tested on: UACC-257 melanoma
[28] = tested on: SW-620 colon
[29] = tested on: T-47D breast
[30] = tested on: SN12C renal
[31] = tested on: CAKI-1 renal
[32] = tested on: NCI-H460 lung
[33] = tested on: UACC-62 melanoma
[34] = tested on: HS 578T breast
[35] = tested on: SF-295 CNS
[36] = tested on: OVCAR-8 ovarian
[37] = tested on: HT29 colon
[38] = tested on: KM12 colon
[39] = tested on: HCT-116 colon
[40] = tested on: DU-145 prostate
[41] = tested on: A549 NSCLC
[42] = tested on: RXF 393 renal
[43] = tested on: ACHN renal
[44] = tested on: HOP-92 NSCLC
[45] = tested on: OVCAR-3 ovarian
[46] = tested on: HOP-62 NSCLC
[47] = tested on: HCT-15 colon
[48] = tested on: SK-MEL-28 melanoma
[49] = tested on: UO-31 renal
[50] = tested on: COLO 205 colon
[51] = tested on: NCI-H23 lung
[52] = tested on: U251 CNS
[53] = tested on: TK-10 renal

## Cc1ccc(S(=O)(=O)NC(CCCCN)C(=O)CCl)cc1 (stereo unspecified)
[1]
  GI50: 81.3 µM
  TGI: > 100 µM
[2]
  GI50: > 100 µM
  TGI: > 100 µM
[3]
  GI50: > 100 µM
  TGI: > 100 µM
[4]
  GI50: > 100 µM
  TGI: > 100 µM
[5]
  GI50: 47.8 µM
  TGI: > 100 µM
[6]
  GI50: 37.4 µM
  TGI: > 100 µM
[7]
  GI50: 47.8 µM
  TGI: > 100 µM
[8]
  GI50: > 100 µM
  TGI: > 100 µM
[9]
  GI50: 67.5 µM
  TGI: > 100 µM
[10]
  GI50: > 100 µM
  TGI: > 100 µM
[11]
  GI50: 38.7 µM
  TGI: > 100 µM
[12]
  GI50: 68.7 µM
  TGI: > 100 µM
[13]
  GI50: > 100 µM
  TGI: > 100 µM
[14]
  GI50: 31 µM
  TGI: > 100 µM
[15]
  GI50: 22.3 µM
  TGI: 53.6 µM
[16]
  GI50: 27.6 µM
  TGI: 89.6 µM
[17]
  GI50: 86.6 µM
  TGI: > 100 µM
[18]
  GI50: 67.5 µM
  TGI: > 100 µM
[19]
  GI50: 52.6 µM
  TGI: > 100 µM
[20]
  GI50: > 100 µM
  TGI: > 100 µM
[21]
  GI50: 79.9 µM
  TGI: > 100 µM
[22]
  GI50: 27.3 µM
  TGI: 93.4 µM
[23]
  GI50: 73.2 µM
  TGI: > 100 µM
[24]
  GI50: 57.9 µM
  TGI: > 100 µM
[25]
  GI50: 45.4 µM
  TGI: > 100 µM
[26]
  GI50: 22.2 µM
  TGI: 67.9 µM
[27]
  GI50: > 100 µM
  TGI: > 100 µM
[28]
  GI50: 43.1 µM
  TGI: > 100 µM
[29]
  GI50: > 100 µM
  TGI: > 100 µM
[30]
  GI50: 35.6 µM
  TGI: 77.2 µM
[31]
  GI50: 37.8 µM
  TGI: > 100 µM
[32]
  GI50: > 100 µM
  TGI: > 100 µM
[33]
  GI50: 58.3 µM
  TGI: > 100 µM
[34]
  GI50: 40.9 µM
  TGI: > 100 µM
[35]
  GI50: 27.2 µM
  TGI: 77 µM
[36]
  GI50: > 100 µM
  TGI: > 100 µM
[37]
  GI50: > 100 µM
  TGI: > 100 µM
[38]
  GI50: 55.9 µM
  TGI: > 100 µM
[39]
  GI50: 90.7 µM
  TGI: > 100 µM
[40]
  GI50: 81.2 µM
  TGI: > 100 µM
[41]
  GI50: > 100 µM
  TGI: > 100 µM
[42]
  GI50: 54.2 µM
  TGI: > 100 µM
[43]
  GI50: 92.7 µM
  TGI: > 100 µM
[44]
  GI50: 20.2 µM
  TGI: 67.1 µM
[45]
  GI50: 33.2 µM
  TGI: > 100 µM
[46]
  GI50: 63.5 µM
  TGI: > 100 µM
[47]
  GI50: 72.4 µM
  TGI: > 100 µM
[48]
  GI50: > 100 µM
  TGI: > 100 µM
[49]
  GI50: > 100 µM
  TGI: > 100 µM
[50]
  GI50: 41.1 µM
  TGI: > 100 µM
[51]
  GI50: > 100 µM
  TGI: > 100 µM
[52]
  GI50: 29 µM
  TGI: > 100 µM
[53]
  GI50: 90.5 µM
  TGI: > 100 µM
